# Where two headings read alike, the source gives them in different places.
# Key:
# human TLR7 = human TLR7 (Homo sapiens (Human), UniProt Q9NYK1); experiment: TLR7 inhibition reporter assay (HEK-Blue cells, SEAP reporter, gardiquimod stimulation); format: cell-based
# human TLR9 = human TLR9 (Homo sapiens (Human), UniProt Q9NR96); experiment: TLR9 inhibition reporter assay (HEK-Blue cells, SEAP reporter, ODN2006 stimulation);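 also: compounds tested over 0.05 nM to 50 µM, 22 h incubation, inhibition taken as SEAP signal drop from agonist plus DMSO wells toward a known inhibitor control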
# human TLR8 = human TLR8 (Homo sapiens (Human), UniProt Q9NR97); experiment: TLR8 inhibition reporter assay (HEK-Blue cells, SEAP reporter, R848 stimulation);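 also: compounds tested from 0.05 nM to 50 µM, 22 h at 37 °C, SEAP measured with HEK-Blue Detection, inhibition relative to agonist plus DMSO versus a known inhibitor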
# [1] = HEK-Blue cells overexpressing human TLR7, gardiquimod 7.5 μM
# [2] = read-out: TLR9 IC50, HEK-Blue cells overexpressing human TLR9, ODN2006 5 nM
# [3] = read-out: TLR8 IC50, HEK-Blue cells overexpressing human TLR8, R848 15.9 μM
# [4] = TLR9 IC50, HEK-Blue cells overexpressing human TLR9, ODN2006 5 nM
# [5] = TLR8 IC50, HEK-Blue cells overexpressing human TLR8, R848 15.9 μM
# [6] = HEK-Blue cells, gardiquimod 7.5 μM
# [7] = read-out: TLR9 IC50, HEK-Blue cells, ODN2006 5 nM
# [8] = read-out: TLR8 IC50, HEK-Blue cells, R848 15.9 μM
# Chain of human TLR9 (Q9NR96 26-1032): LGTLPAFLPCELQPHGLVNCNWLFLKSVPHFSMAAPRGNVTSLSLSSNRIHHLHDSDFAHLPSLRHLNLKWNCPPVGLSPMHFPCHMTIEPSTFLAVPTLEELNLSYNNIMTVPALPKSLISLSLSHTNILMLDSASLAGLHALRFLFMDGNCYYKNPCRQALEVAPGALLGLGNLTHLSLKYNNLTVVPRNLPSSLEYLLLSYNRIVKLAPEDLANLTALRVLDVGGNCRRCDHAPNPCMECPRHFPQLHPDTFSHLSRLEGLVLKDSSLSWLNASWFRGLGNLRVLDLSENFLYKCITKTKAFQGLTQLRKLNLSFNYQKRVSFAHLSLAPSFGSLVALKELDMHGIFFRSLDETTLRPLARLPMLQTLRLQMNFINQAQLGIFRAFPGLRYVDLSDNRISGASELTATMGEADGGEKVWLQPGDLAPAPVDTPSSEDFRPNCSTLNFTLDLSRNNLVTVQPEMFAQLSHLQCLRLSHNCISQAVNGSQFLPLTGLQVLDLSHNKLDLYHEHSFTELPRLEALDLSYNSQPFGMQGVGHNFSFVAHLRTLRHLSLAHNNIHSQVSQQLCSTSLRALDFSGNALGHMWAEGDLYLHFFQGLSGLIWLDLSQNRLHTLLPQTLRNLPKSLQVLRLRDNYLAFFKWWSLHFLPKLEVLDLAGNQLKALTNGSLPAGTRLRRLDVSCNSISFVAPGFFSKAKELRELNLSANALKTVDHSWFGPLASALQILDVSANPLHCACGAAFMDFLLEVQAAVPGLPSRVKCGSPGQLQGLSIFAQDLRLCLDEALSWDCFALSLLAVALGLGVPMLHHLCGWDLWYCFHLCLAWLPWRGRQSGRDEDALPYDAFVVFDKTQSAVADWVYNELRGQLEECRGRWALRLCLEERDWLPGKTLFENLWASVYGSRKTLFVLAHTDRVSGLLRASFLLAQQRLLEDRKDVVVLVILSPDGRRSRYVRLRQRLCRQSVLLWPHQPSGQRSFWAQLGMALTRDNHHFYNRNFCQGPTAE
# Chain of human TLR8 (Q9NR97 27-1041): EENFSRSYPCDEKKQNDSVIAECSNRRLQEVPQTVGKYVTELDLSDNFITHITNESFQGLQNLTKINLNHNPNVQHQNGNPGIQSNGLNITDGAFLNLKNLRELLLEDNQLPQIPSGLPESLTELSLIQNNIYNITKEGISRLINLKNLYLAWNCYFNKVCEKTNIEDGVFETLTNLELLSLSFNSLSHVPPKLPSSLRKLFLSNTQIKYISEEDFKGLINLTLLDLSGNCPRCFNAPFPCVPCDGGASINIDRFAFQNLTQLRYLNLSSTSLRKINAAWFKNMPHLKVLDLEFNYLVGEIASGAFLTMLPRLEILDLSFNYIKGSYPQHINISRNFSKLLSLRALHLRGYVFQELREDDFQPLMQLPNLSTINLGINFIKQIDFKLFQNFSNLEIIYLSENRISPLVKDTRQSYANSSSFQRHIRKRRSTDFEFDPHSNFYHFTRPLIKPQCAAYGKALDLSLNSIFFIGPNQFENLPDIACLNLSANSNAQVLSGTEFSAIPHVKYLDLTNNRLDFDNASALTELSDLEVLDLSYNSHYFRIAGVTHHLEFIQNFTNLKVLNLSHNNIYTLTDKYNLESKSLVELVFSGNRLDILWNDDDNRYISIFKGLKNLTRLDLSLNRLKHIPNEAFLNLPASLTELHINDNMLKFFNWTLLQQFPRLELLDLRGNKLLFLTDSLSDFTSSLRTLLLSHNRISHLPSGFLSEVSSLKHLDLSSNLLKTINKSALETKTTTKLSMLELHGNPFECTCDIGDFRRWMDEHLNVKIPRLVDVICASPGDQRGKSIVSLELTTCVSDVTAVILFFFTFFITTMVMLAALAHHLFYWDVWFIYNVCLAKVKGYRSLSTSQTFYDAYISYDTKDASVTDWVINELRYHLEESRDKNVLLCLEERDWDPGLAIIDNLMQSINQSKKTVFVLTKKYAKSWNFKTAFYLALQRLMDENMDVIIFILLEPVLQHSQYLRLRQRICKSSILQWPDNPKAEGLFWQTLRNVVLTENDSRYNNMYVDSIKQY
# Chain of human TLR7 (Q9NYK1 27-1049): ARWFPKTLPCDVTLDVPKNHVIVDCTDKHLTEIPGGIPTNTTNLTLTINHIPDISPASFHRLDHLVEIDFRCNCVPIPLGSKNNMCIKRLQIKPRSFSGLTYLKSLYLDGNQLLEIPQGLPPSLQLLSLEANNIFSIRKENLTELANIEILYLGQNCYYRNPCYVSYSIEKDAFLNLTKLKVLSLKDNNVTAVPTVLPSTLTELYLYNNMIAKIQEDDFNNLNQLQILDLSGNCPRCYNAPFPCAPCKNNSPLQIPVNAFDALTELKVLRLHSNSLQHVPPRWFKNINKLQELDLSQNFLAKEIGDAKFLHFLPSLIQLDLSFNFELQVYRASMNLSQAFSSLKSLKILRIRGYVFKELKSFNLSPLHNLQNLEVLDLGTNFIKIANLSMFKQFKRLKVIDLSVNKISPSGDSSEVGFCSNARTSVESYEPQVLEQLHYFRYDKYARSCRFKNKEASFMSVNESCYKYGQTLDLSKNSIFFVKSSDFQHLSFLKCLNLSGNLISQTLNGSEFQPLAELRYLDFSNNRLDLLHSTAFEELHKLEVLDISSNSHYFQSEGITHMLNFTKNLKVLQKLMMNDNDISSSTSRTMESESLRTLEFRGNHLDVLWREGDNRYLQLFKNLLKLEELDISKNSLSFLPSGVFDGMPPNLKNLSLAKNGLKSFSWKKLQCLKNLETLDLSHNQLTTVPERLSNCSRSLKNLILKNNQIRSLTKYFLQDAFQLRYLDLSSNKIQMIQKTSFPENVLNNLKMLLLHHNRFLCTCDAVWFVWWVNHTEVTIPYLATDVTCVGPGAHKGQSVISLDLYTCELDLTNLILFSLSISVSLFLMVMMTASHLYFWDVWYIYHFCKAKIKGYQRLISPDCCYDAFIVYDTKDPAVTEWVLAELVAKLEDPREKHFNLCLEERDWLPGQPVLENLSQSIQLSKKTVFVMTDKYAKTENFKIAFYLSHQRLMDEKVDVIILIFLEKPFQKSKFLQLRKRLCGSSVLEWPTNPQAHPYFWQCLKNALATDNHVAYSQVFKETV
SMILES,IC50 (human TLR7; [1]),IC50 (human TLR9; [2]),IC50 (human TLR8; [3]),also measured
"Cc1cc(-c2[nH]c3ccc(C4CCN(C(=O)CN5CC(F)(F)C[C@H]5CO)CC4)cc3c2C(C)C)cc(C)n1 [Example 403, (S)-2-(4,4-difluoro-2-(hydroxymethyl)pyrrolidin-1-yl)-1-(4-(2-(2,6-dimethylpyridin-4-yl)-3-isopropyl-1H-indol-5-yl)piperidin-1-yl)ethan-1-one]",14.6 nM,17600 nM,209 nM,–
"Cc1cc(-c2[nH]c3cc(C(F)(F)F)c(C4CCNCC4)cc3c2C(C)C)ccn1 [Example 74, 3-isopropyl-2-(2-methylpyridin-4-yl)-5-(piperidin-4-yl)-6-(trifluoromethyl)-1H-indole]",13.1 nM,1160 nM,437 nM,–
"Cc1cc(-c2[nH]c3ccc(C4CCN(Cc5c[nH]nn5)CC4)cc3c2C(C)C)cc(C)n1 [Example 446, 5-(1-((1H-1,2,3-triazol-4-yl)methyl)piperidin-4-yl)-2-(2,6-dimethylpyridin-4-yl)-3-isopropyl-1H-indole]",1.3 nM,292 nM,2.6 nM,–
"CC(=O)N1CCC(c2cc3c(C(C)C)c(-c4cc(C)nc(C)c4)[nH]c3cc2F)CC1 [Example 829, 1-(4-(2-(2,6-dimethylpyridin-4-yl)-6-fluoro-3-isopropyl-1H-indol-5-yl)piperidin-1-yl)ethan-1-one]",–,–,–,IC50 (human TLR7; [6]): 17.5 nM; IC50 (human TLR9; [7]): 3070 nM; IC50 (human TLR8; [8]): 63.4 nM
"CC(C)c1c(-c2ccnc(N)c2)[nH]c2ccc(C3CCN(C(=O)C4CCNCC4)CC3)cc12 [Example 819, (4-(2-(2-aminopyridin-4-yl)-3-isopropyl-1H-indol-5-yl)piperidin-1-yl)(piperidin-4-yl)methanone]",–,–,–,IC50 (human TLR7; [6]): 415 nM; IC50 (human TLR9; [7]): 712 nM; IC50 (human TLR8; [8]): 588 nM
"Cc1cc(-c2[nH]c3ccc(C4CCN(C(=O)C5(C)CCN(C(C)C)CC5)CC4)cc3c2C(C)C)cc(C)n1 [Example 177, (4-(2-(2,6-dimethylpyridin-4-yl)-3-isopropyl-1H-indol-5-yl)piperidin-1-yl)(1-isopropyl-4-methylpiperidin-4-yl)methanone]",13.1 nM,937 nM,67.2 nM,–
"Cc1cc(-c2[nH]c3ccc(C4CCN(Cc5ccn[nH]5)CC4)cc3c2C(C)C)c(C)cn1 [Example 681, 5-(1-((1H-pyrazol-5-yl)methyl)piperidin-4-yl)-2-(2,5-dimethylpyridin-4-yl)-3-isopropyl-1H-indole]",15.5 nM,1530 nM,0.6 nM,–
"Cc1cc(-c2[nH]c3ccc(C4CCN(Cc5cn[nH]c5)CC4)cc3c2C(C)C)cc(C)n1 [Example 438, 5-(1-((1H-pyrazol-4-yl)methyl)piperidin-4-yl)-2-(2,6-dimethylpyridin-4-yl)-3-isopropyl-1H-indole]",1.2 nM,69 nM,3.1 nM,–
"Cc1cc(-c2[nH]c3ccc(C4CCN(C(=O)CN(C)CCO)CC4)cc3c2C(C)C)cc(C)n1 [Example 420, 1-(4-(2-(2,6-dimethylpyridin-4-yl)-3-isopropyl-1H-indol-5-yl)piperidin-1-yl)-2-((2-hydroxyethyl)(methyl)amino)ethan-1-one]",1.5 nM,632 nM,9.9 nM,–
"Cc1cc(-c2[nH]c3ccc(C4CCN(CC(F)F)CC4)cc3c2C(C)C)cc(C)n1 [Example 327, 5-(1-(2,2-difluoroethyl)piperidin-4-yl)-2-(2,6-dimethylpyridin-4-yl)-3-isopropyl-1H-indole]",15.6 nM,3720 nM,52.9 nM,–
"Cc1cc(-c2[nH]c3ccc(C4CCN(CC(=O)NCC(F)(F)F)CC4)cc3c2C(C)C)cc(C)n1 [Example 214, 2-(4-(2-(2,6-dimethylpyridin-4-yl)-3-isopropyl-1H-indol-5-yl)piperidin-1-yl)-N-(2,2,2-trifluoroethyl)acetamide]",6.2 nM,1220 nM,12.8 nM,–
"Cc1cc(-c2[nH]c3ccc(C4CCN(CCCO)CC4)cc3c2C(C)C)cc(C)n1 [Example 311, 3-(4-(2-(2,6-dimethylpyridin-4-yl)-3-isopropyl-1H-indol-5-yl)piperidin-1-yl)propan-1-ol]",1.8 nM,270 nM,2.5 nM,–
"Cc1cc(-c2[nH]c3ccc(C4CCN(Cc5cnc[nH]5)CC4)cc3c2C(C)C)c(C)cn1 [Example 824, 5-(1-((1H-imidazol-5-yl)methyl)piperidin-4-yl)-2-(2,5-dimethylpyridin-4-yl)-3-isopropyl-1H-indole]",–,–,–,"IC50 (human TLR7; [6]): 13.8 nM; IC50 (human TLR9; TLR9 IC50, HEK-Blue cells, ODN2006 5 nM): 729 nM; IC50 (human TLR8; TLR8 IC50, HEK-Blue cells, R848 15.9 μM): 1.2 nM"
"Cc1cc(-c2[nH]c3ccc(C4CCN(CC(=O)N(CCO)C(C)C)CC4)cc3c2C(C)C)cc(C)n1 [Example 299, 2-(4-(2-(2,6-dimethylpyridin-4-yl)-3-isopropyl-1H-indol-5-yl)piperidin-1-yl)-N-(2-hydroxyethyl)-N-isopropylacetamide]",24 nM,2630 nM,112 nM,–
"CCc1c(-c2cc(F)nc(F)c2)[nH]c2ccc(C3CCN(C4CCN(CC(C)C)CC4)CC3)cc12 [Example 761, 2-(2,6-difluoropyridin-4-yl)-3-ethyl-5-(1′-isobutyl-[1,4′-bipiperidin]-4-yl)-1H-indole]",4260 nM,800 nM,375 nM,–
"COCCN(C)CC(=O)N1CCC(c2ccc3[nH]c(-c4cc(C)nc(C)c4)c(C(C)C)c3c2)CC1 [Example 148, 1-(4-(2-(2,6-dimethylpyridin-4-yl)-3-isopropyl-1H-indol-5-yl)piperidin-1-yl)-2-((2-methoxyethyl)(methyl)amino)ethan-1-one]",2.2 nM,900 nM,9.8 nM,–
"Cc1cc(-c2[nH]c3cc(F)c(C4CCN(C5CC(C)OC(C)C5)CC4)cc3c2C(C)C)cc(C)n1 (stereo not drawn) [Example 830, 2-(2,6-dimethylpyridin-4-yl)-5-(1-(2,6-dimethyltetrahydro-2H-pyran-4-yl)piperidin-4-yl)-6-fluoro-3-isopropyl-1H-indole]",–,–,–,IC50 (human TLR7; [6]): 4.8 nM; IC50 (human TLR9; [7]): 229 nM; IC50 (human TLR8; [8]): 17.3 nM
"Cc1cc(-c2[nH]c3ccc(C4CCN(C(=O)C(=O)N5CCNCC5)CC4)cc3c2C(C)C)cc(C)n1 [Example 857, 1-(4-(2-(2,6-dimethylpyridin-4-yl)-3-isopropyl-1H-indol-5-yl)piperidin-1-yl)-2-(piperazin-1-yl)ethane-1,2-dione]",–,–,–,IC50 (human TLR7; [6]): 1.3 nM; IC50 (human TLR9; [7]): 441 nM; IC50 (human TLR8; [8]): 13.6 nM
"Cc1cc(-c2[nH]c3ccc(C4CCN(CC(=O)N5C[C@H](C(F)(F)F)C[C@@H]5CO)CC4)cc3c2C(C)C)cc(C)n1 [Example 301, 2-(4-(2-(2,6-dimethylpyridin-4-yl)-3-isopropyl-1H-indol-5-yl)piperidin-1-yl)-1-((2R,4R)-2-(hydroxymethyl)-4-(trifluoromethyl)pyrrolidin-1-yl)ethan-1-one]",19.6 nM,1580 nM,118 nM,–

# Second part, led by results:
IC50 (human TLR7; [1]),IC50 (human TLR9; [2]),IC50 (human TLR8; [3]),SMILES,also measured
1.3 nM,–,–,"Cc1cc(-c2[nH]c3ccc(C4CCN(C(=O)C5CCNC5)CC4)cc3c2C(C)C)cc(C)n1 (single isomer, unassigned) [Example 182, (4-(2-(2,6-dimethylpyridin-4-yl)-3-isopropyl-1H-indol-5-yl)piperidin-1-yl)(pyrrolidin-3-yl) methanone]",IC50 (human TLR9; [4]): 151 nM; IC50 (human TLR8; [5]): 12 nM
56.5 nM,40900 nM,186 nM,"Cc1cc(-c2[nH]c3ccc(C4CCN(C(=O)C5CC5)CC4)cc3c2C(C)C)ccn1 [Example 606, cyclopropyl(4-(3-isopropyl-2-(2-methylpyridin-4-yl)-1H-indol-5-yl)piperidin-1-yl)methanone]",–
13.9 nM,1640 nM,14.4 nM,"Cc1nccc(-c2[nH]c3ccc(C4CCNCC4)cc3c2C(C)C)c1Cl [Example 44, 2-(3-chloro-2-methylpyridin-4-yl)-3-isopropyl-5-(piperidin-4-yl)-1H-indole]",–
2.8 nM,869 nM,13.3 nM,"Cc1cc(-c2[nH]c3ccc(C4CCN(C(=O)CNCC5CC5)CC4)cc3c2C(C)C)cc(C)n1 [Example 339, 2-((cyclopropylmethyl)amino)-1-(4-(2-(2,6-dimethylpyridin-4-yl)-3-isopropyl-1H-indol-5-yl)piperidin-1-yl)ethan-1-one]",–
77.7 nM,14300 nM,124 nM,"Cc1cc(-c2[nH]c3ccc(C4CCN(C(=O)C5(C(F)(F)F)CC5)CC4)cc3c2C(C)C)ccn1 [Example 605, (4-(3-isopropyl-2-(2-methylpyridin-4-yl)-1H-indol-5-yl)piperidin-1-yl)(1-(trifluoromethyl)cyclopropyl)methanone]",–
5.1 nM,692 nM,18.6 nM,"Cc1cc(-c2[nH]c3ccc(C4CCN(C(=O)C5CCNC5)CC4)cc3c2C(C)C)ccn1 (stereo not drawn) [Example 572, (4-(3-isopropyl-2-(2-methylpyridin-4-yl)-1H-indol-5-yl)piperidin-1-yl)(pyrrolidin-3-yl)methanone]",–
104 nM,> 50000 nM,78.9 nM,"Cc1cc(-c2[nH]c3ccc(C4CCN(CC(F)F)CC4)cc3c2C(C)C)ccn1 [Example 660, 5-(1-(2,2-difluoroethyl)piperidin-4-yl)-3-isopropyl-2-(2-methylpyridin-4-yl)-1H-indole]",–
358 nM,–,–,"Cc1c(-c2[nH]c3ccc(C4CCNCC4)cc3c2C(C)C)ccnc1N [Example 11, 4-(3-isopropyl-5-(piperidin-4-yl)-1H-indol-2-yl)-3-methylpyridin-2-amine]",IC50 (human TLR9; [4]): 309 nM; IC50 (human TLR8; [5]): 90.6 nM

# Source: patent publication US10660877B2 (BRISTOL-MYERS SQUIBB COMPANY, priority 2016, dated 2020)
